# Measured values published in the supplement of paper PMC11451515.
# System: NOMO1
# Assay: cell viability relative to DMSO control; higher = less cytotoxic
# Conditions: 48 h
# In short: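 Viability, reported as a per-plate percentage of DMSO wells with cell-free wells as background, came from CellTiter-Glo One luminescence. Reading took place after 48 h at 37°C. Before that, NOMO1 or SEM (500 cells/well) or P12-Ichikawa (1000 cells/well) leukemia cells, adapted for at least four passages in each medium, were seeded in 1536-well plates (5 μl) and pin-dosed with library compounds in DMSO, 47 μM to 0.79 nM over 11 threefold points.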
# [1] = HPLM + 10% dialyzed FBS, 0.000781 µM
# [2] = HPLM + 10% dialyzed FBS, 0.00234 µM
# [3] = HPLM + 10% dialyzed FBS, 0.00702 µM
# [4] = HPLM + 10% dialyzed FBS, 0.0211 µM
# [5] = HPLM + 10% dialyzed FBS, 0.0632 µM
# [6] = HPLM + 10% dialyzed FBS, 0.19 µM
# [7] = HPLM + 10% dialyzed FBS, 0.569 µM
# [8] = HPLM + 10% dialyzed FBS, 1.71 µM
# [9] = HPLM + 10% dialyzed FBS, 5.12 µM
# [10] = HPLM + 10% dialyzed FBS, 15.4 µM
# [11] = HPLM + 10% dialyzed FBS, 46.1 µM
# [12] = RPMI 5 mM glucose + 10% FBS, 0.000781 µM
# [13] = RPMI 5 mM glucose + 10% FBS, 0.00234 µM
# [14] = RPMI 5 mM glucose + 10% FBS, 0.00702 µM
# [15] = RPMI 5 mM glucose + 10% FBS, 0.0211 µM
# [16] = RPMI 5 mM glucose + 10% FBS, 0.0632 µM
# [17] = RPMI 5 mM glucose + 10% FBS, 0.19 µM
# [18] = RPMI 5 mM glucose + 10% FBS, 0.569 µM
# [19] = RPMI 5 mM glucose + 10% FBS, 1.71 µM
# [20] = RPMI 5 mM glucose + 10% FBS, 5.12 µM
# [21] = RPMI 5 mM glucose + 10% FBS, 15.4 µM
# [22] = RPMI 5 mM glucose + 10% FBS, 46.1 µM
# [23] = RPMI 5 mM glucose + 10% dialyzed FBS, 0.000781 µM
# [24] = RPMI 5 mM glucose + 10% dialyzed FBS, 0.00234 µM
# [25] = RPMI 5 mM glucose + 10% dialyzed FBS, 0.00702 µM
# [26] = RPMI 5 mM glucose + 10% dialyzed FBS, 0.0211 µM
# [27] = RPMI 5 mM glucose + 10% dialyzed FBS, 0.0632 µM
# [28] = RPMI 5 mM glucose + 10% dialyzed FBS, 0.19 µM
# [29] = RPMI 5 mM glucose + 10% dialyzed FBS, 0.569 µM
# [30] = RPMI 5 mM glucose + 10% dialyzed FBS, 1.71 µM
# [31] = RPMI 5 mM glucose + 10% dialyzed FBS, 5.12 µM
# [32] = RPMI 5 mM glucose + 10% dialyzed FBS, 15.4 µM
# [33] = RPMI 5 mM glucose + 10% dialyzed FBS, 46.1 µM
Structure (SMILES),cell viability [1] [%],cell viability [2] [%],cell viability [3] [%],cell viability [4] [%],cell viability [5] [%],cell viability [6] [%],cell viability [7] [%],cell viability [8] [%],cell viability [9] [%],cell viability [10] [%],cell viability [11] [%],cell viability [12] [%],cell viability [13] [%],cell viability [14] [%],cell viability [15] [%],cell viability [16] [%],cell viability [17] [%],cell viability [18] [%],cell viability [19] [%],cell viability [20] [%],cell viability [21] [%],cell viability [22] [%],cell viability [23] [%],cell viability [24] [%],cell viability [25] [%],cell viability [26] [%],cell viability [27] [%],cell viability [28] [%],cell viability [29] [%],cell viability [30] [%],cell viability [31] [%],cell viability [32] [%],cell viability [33] [%]
OC[C@H]1O[C@@H](Oc2cc(O)cc(/C=C/c3ccc(O)cc3)c2)[C@H](O)[C@@H](O)[C@@H]1O,85.6,116,107,128,115,111,99.4,74.8,63.1,58.8,45,102,99.2,111,121,104,106,98.1,91.5,84.2,63.2,63.3,85.6,92.4,88.3,98.4,109,108,103,84.7,51.9,52.7,76.5
CNC(=O)C1=CC=C(C)C(=C1)N2C(=C/C(=C(/Br)C2=O)OCC3=C(F)C=C(F)C=C3)\C,,,,,,,,,,,,114,128,122,127,127,151,139,137,136,145,130,,,,,,,,,,,
Cc1noc(-c2ccc(CSCCC(=O)O)cc2)c1NC(=O)OC(C)c1ccccc1Cl (stereo unspecified),92.3,89.9,105,104,99.8,97.1,95.6,97,113,111,95.7,85.7,97.5,99,89.6,109,95.4,102,100,95.5,110,105,79,99.1,87.3,86.3,99.1,92.2,99.5,95.8,100,104,107
Cc1ccc2c(c1)c1c(n2CCc2ccc(C)nc2)CCN(C)C1,126,115,111,130,128,130,141,134,141,153,127,,,,,,,,,,,,,,,,,,,,,,
CN(C)CCN1C(=O)c2cccc3cc(N)cc(c23)C1=O,116,122,118,125,118,147,118,123,93.7,72.3,26.7,93.3,108,135,108,121,121,132,102,105,59.3,13.1,99.2,110,108,111,118,118,111,108,97.3,73.6,23.9
COc1cc(O)c2c(c1)C(=O)c1cc(C)cc(O)c1C2=O,,,,,,,,,,,,107,119,111,115,102,113,101,110,105,92.3,31.2,115,114,110,110,120,118,109,119,120,85.4,24.3
CN1CCN(CCCN2c3ccccc3Sc3ccc(C(F)(F)F)cc32)CC1,105,106,112,117,108,115,125,95.4,32.9,20.6,24.2,100,104,108,101,96.2,98.5,106,61.5,18.7,16.7,11.3,99.6,107,105,108,119,113,103,104,27.2,25.6,21
CCCC1OC2C[C@H]3[C@@H]4CCC5=CC(=O)C=C[C@]5(C)[C@H]4C(O)C[C@]3(C)[C@]2(C(=O)CO)O1 (stereo partly specified),,,,,,,,,,,,106,105,107,111,107,104,106,103,100,97.5,46.7,99.5,119,106,114,110,102,105,115,97.1,95.3,63.7
Cc1c[nH]c(-c2cnc(NCCNc3ccc(C#N)cn3)nc2-c2ccc(Cl)cc2Cl)n1,72.9,85.8,94.2,78.5,87.3,101,89.5,93.3,80.3,67.5,57.7,66.4,79.7,83.7,80.7,96.7,83.5,77.5,85.7,76.5,81.3,64.2,76.7,80.8,90.1,89.2,83.6,90.2,85.9,94.6,64.8,88,64.7
